From paper PMC10985270 (Acta Pharmaceutica Sinica. B, 2024)
Read-outs that look alike come from different tables or passages of the source.

Assays:
hMAO-B [1] = target: T1, hMAO-B (Homo sapiens, UniProt P27338); assay: hMAO-B fluorescence bioassay; assay type: biochemical; conditions: for SI: selectivity index for the MAO-B isoform: ratio IC50(MAO-A)/IC50(MAO-B)
T1 sequence (P27338 1-520): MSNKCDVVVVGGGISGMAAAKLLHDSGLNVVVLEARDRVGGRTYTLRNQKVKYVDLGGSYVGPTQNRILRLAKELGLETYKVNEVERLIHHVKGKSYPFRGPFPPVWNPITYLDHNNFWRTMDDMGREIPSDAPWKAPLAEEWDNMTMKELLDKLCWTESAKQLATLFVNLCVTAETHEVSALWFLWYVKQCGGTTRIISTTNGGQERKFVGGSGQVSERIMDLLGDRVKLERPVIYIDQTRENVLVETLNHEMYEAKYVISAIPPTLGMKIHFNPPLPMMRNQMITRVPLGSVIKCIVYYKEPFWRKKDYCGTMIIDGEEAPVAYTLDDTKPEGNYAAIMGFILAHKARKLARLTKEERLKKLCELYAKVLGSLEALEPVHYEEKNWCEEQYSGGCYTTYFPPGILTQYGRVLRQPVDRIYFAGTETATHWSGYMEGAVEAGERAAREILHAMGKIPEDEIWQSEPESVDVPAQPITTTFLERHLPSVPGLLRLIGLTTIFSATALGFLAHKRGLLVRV

hMAO-A = target: T2, hMAO-A (Homo sapiens, UniProt P21397); assay: hMAO-A fluorescence bioassay; assay type: biochemical
T2 sequence (P21397 1-527): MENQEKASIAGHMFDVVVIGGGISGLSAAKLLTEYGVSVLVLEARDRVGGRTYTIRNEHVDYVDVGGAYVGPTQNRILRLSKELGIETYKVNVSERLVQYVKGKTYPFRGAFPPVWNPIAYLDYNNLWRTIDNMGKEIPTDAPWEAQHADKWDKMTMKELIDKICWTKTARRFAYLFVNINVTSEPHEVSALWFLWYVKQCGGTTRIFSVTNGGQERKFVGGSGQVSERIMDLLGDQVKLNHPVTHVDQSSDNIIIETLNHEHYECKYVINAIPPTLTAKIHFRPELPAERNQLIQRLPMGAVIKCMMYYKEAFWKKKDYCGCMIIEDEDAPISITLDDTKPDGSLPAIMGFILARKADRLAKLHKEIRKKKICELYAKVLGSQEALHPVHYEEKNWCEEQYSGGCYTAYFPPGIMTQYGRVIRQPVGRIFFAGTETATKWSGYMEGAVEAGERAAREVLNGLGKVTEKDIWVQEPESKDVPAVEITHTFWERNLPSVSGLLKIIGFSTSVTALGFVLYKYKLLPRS

hMAO-B [2] = target: T1, hMAO-B; assay: At-line nanofractionation hMAO-B screening of mixed standards; assay type: biochemical; conditions: mixed standards 100 μmol/L
hMAO-B [3] = target: T1, hMAO-B; assay: Reversibility of hMAO-B inhibition; assay type: biochemical; conditions: KYN 46 μmol/L
SH-SY5Y cells = assay: Neuroprotection against 6-OHDA-induced toxicity in SH-SY5Y cells; assay type: cell-based; conditions: Homo sapiens, read-out: EC50, neuroprotective effect

| SI: selectivity index for the MAO-B isoform (hMAO-B [1]) | IC50 (hMAO-A) [µM] | IC50 (hMAO-B [1]) [µM] | SMILES | EC50 (SH-SY5Y cells) [µM] | also measured |
| --- | --- | --- | --- | --- | --- |
| 1.840 | 60.9 ± 5.85 | – | O=C(O)/C=C/c1ccc(O)c(O)c1 [Caffeic acid] | – | IC50 (hMAO-B [1]; Inhibition (IC50) hMAO-B, Table 1): 33.1 ± 7.57 µM |
| – | – | 24 | COc1ccc(-c2coc3cc(O)ccc3c2=O)cc1O [Calycosin, reference compound] | – | Activity peak in bioactivity chromatogram (hMAO-B [2]): displayed inhibitory activity |
| – | 82.4 ± 14.6 | 69.6 ± 14.4 | O=C(/C=C/c1ccc(O)c(O)c1)O[C@@H]1C[C@](O)(C(=O)O)C[C@@H](O)[C@H]1O [Chlorogenic acid] | – | – |
| 207.362 | 102 ± 13.1 | 0.494 ± 0.132 | CCCC[C@@H]1OC(=O)C2=CCCC[C@H]21 [Neocnidilide] | 1.16 | Inhibitory activity against hMAO-B (in words) (hMAO-B [1]; phthalides): highest activity; SI: selectivity index for the MAO-B isoform (hMAO-B [1]; listed as neocnidilide): 207; Reversibility of hMAO-B inhibition (hMAO-B [3]): reversible |
| – | – | – | C#CCN[C@@H]1CCc2ccccc21 [Rasagiline] | 0.896 | Activity peak in bioactivity chromatogram (hMAO-B [2]): displayed inhibitory activity |
| – | – | – | C[C@H](NCc1ccc(OCc2cccc(F)c2)cc1)C(N)=O [Safinamide, reference compound] | 1.08 | Reversibility of hMAO-B inhibition (hMAO-B [3]): reversible |
| 1.884 | 86.1 ± 15.3 | 45.7 ± 2.6 | COc1cc(C=O)ccc1O [Vanillin] | – | – |
